Common to all, as to type: in vivo, SD rats
Assay [1] concerns animal model of cerebral hemorrhage. As to the kind of experiment: Hematoma volume in brain sections, collagenase-induced intracerebral hemorrhage (Example 1). The note with it: 2 mg/mL solution of SMTP-7 injected into the brain at 0.2 µL/min over 10 minutes, 24 hours after collagenase injection; brain sections on day 7; FIG. 1A-1C, FIG. 2. How it is done: (§1) Eight to 10 week old male SD rats (250 to 300 g body weight) were kept under a 12-hour light/dark cycle and a temperature of 22°C ± 1°C. The rats were raised in plastic cages and given free access to water and feed. The number of rats used in each experiment was n = 4 unless otherwise indicated. Moreover, a component other than those listed in the injection solution was physiological saline.
(§2) The rats were anesthetized with isoflurane (1.5% isoflurane + 66% NO + 33% O2) and then injected with collagenase from clostridium histolyticum (type IV, made by Sigma-Aldrich) at a concentration of 0.25 U/µL at a position 3 mm lateral from the center of the brain, at bregma level in the anteroposterior direction and 5 mm behind the stria vascularis using a syringe to inject for 5 minutes at a rate of 0.2 µL/min, then the syringe needle was held at that position for 10 minutes, and then slowly withdrawn over another 10 minutes (0.5 mm per minute). Note that care was taken to prevent backflow during injection. In the following description, the day of this collagenase injection is referred to as day 0. This collagenase injection causes an intracerebral hemorrhage and the formation of a hematoma. […]
Moreover, the ratio of volume of hematoma to the volume of the entire brain was also measured using Imaged. […]

The test system is the same in assay [2]. As to the kind of experiment: Evans blue staining of brain sections, collagenase-induced intracerebral hemorrhage (Example 2). Conditions: SMTP-7 test solution as in example 1; 2% Evans blue into tail vein 1 hour before sacrifice, day 7; FIG. 3A-3D, 4, 5. How it is done: as §1
The rats were anesthetized with isoflurane (1.5% isoflurane + 66% NO + 33% O2) and then injected with collagenase from clostridium histolyticum (type IV, made by Sigma-Aldrich) at a concentration of 0.25 U/µL at a position 3 mm lateral from the center of the brain, at bregma level in the anteroposterior direction and 5 mm behind the stria vascularis using a syringe to inject for 5 minutes at a rate of 0.2 µL/min, then the syringe needle was held at that position for 10 minutes, and then slowly withdrawn over another 10 minutes (0.5 mm per minute). […]
The same experiment as in example 1 was performed again. […] Micrographs of whole brains and 3 mm thick sections are illustrated in FIG. 3A to FIG. 3D, and the total area (mm^2) of Evans blue-stained region and staining density determined from the sections using Imaged are shown in FIG. 4 and FIG. 5. […] In FIG. 5, the vertical axis represents the concentration value of Evans blue expressed as absorbance at a wavelength of 620 nm.

Assay [3] shares this test system. As to the kind of experiment: Small animal MRI (T2-weighted) of hematoma and edema, collagenase-induced intracerebral hemorrhage (Example 3). Conditions: SMTP-7 test solution as in example 1. How it is done: as §1
as §2, with “0.” for “0. This collagenase injection causes an intracerebral hemorrhage and the formation of a hematoma.”
Collagenase injection and test solution injection were performed as in example 1, and rat brains were measured by small animal MRI on days 1 and 7 after collagenase injection (PharmaScan made by Bruker BioSpin). […] The volume of hematomas was measured based on these MRI measurements using Imaged. […]

For assay [4] the test system is unchanged. As to the kind of experiment: Barnes maze test, collagenase-induced intracerebral hemorrhage (Example 4). Conditions: SMTP-7 test solution as in example 1; day 7 to day 10 after collagenase injection; FIG. 11-15. The method, then: as §1
as §2, with “0.” for “0. This collagenase injection causes an intracerebral hemorrhage and the formation of a hematoma.”
Collagenase injection and test solution injection were performed as in example 1, and a Barnes maze test (Barnes maze test) was performed on day 7 after collagenase injection. […] The time it took to reach the escape box and the number of holes where the rats incorrectly stayed at were evaluated. […]

Assay [5] has the same test system. As to the kind of experiment: LAN cable walking test of motor function, collagenase-induced intracerebral hemorrhage (Example 5). Conditions: SMTP-7 test solution as in example 1; observed for 60 seconds on LAN cable; FIG. 16. The method, then:
as §1, §2
Collagenase injection and test solution injection were performed as in example 1, and the motor function of rats was evaluated by having the rats walk on a local area network (LAN) cable. […]

Assay [6] shares this test system. As to the kind of experiment: Hematoxylin-eosin (HE) staining of brain sections, hematoma area (Example 6). Conditions: SMTP-7 test solution as in example 1; sections on day 7 after collagenase injection; FIG. 17-18. How it is done: as §1, §2
The test system is the same in assay [7]. As to the kind of experiment: Luxol fast blue and Cresyl violet double staining, myelin density in white matter (Example 7). Conditions: SMTP-7 test solution as in example 1; ipsilateral, contralateral and central sites; day 7; FIG. 19-21. The method, then: as §1, §2
For assay [8], the system named is cleaved caspase-3 (Asp175). As to the kind of experiment: Antibody staining of brain sections for cleaved caspase-3 (Example 8). The note with it: SMTP-7 test solution as in example 1, cerebral cortex, day 7, FIG. 22-24. The method, then: as §1, §2
Another assay deals with GFAP. As to the kind of experiment: Antibody staining of brain sections with anti-GFAP antibodies (Example 9). Conditions: SMTP-7 test solution as in example 1; day 7; FIG. 25-27. The method, then:
as §1, §2

The subject of another assay is Iba-1. As to the kind of experiment: Antibody staining of brain sections with anti-Iba-1 antibodies (Example 10). Conditions: SMTP-7 test solution as in example 1; day 7; FIG. 28-30. How it is done: as §1, §2

The structures appear in SMILES notation.

Turning to `CC(C)=CCC/C(C)=C/CC[C@]1(C)Oc2c(c(O)cc3c2CN(CCC[C@@H](C(=O)O)N2Cc4c(cc(O)c5c4O[C@@](C)(CC/C=C(\C)CCC=C(C)C)[C@@H](O)C5)C2=O)C3=O)C[C@@H]1O` [SMTP-7], the “ratio of volume of hematoma to the volume of the entire brain” value in [1] was “marked reduction in hematoma”. Further, the “hematoma: total area of Evans blue-stained region and staining density” value in assay [2] is listed as “marked reduction in hematoma”. Further, the “volume ratio of hematoma in the T2-weighted MRI image” value in assay [3] (MRI on days 1 and 7 after collagenase injection, FIG. 6-8) was “marked reduction in both hematoma and edema”. In addition, the “ratio of cerebral edema volume in brain volume (MRI)” value in assay [3] (day 7 after collagenase injection, FIG. 9-10) is “marked reduction in both hematoma and edema”. The “learning ability: time required to reach the escape box and number of incorrect holes” value in assay [4] was “marked improvement in learning ability”. Besides, in assay [5], the “motor ability: total score (0 to 10) in LAN cable walking test” value is “marked improvement in motor ability”. In assay [6], the “area of the hematoma region identified by HE staining” value is “marked reduction in hematoma”. Besides, the “white matter lesions (demyelination): myelin density in white matter” value in assay [7] is “marked suppression of hematoma lesions”. For the same compound, the “number of cells expressing caspase-3 (immunopositive cells per 100 µm^2 of ROI), contralateral” value in [8] (contralateral to collagenase injection) is on record as “markedly reduced”. Besides, the “number of cells expressing caspase-3 (immunopositive cells per 100 µm^2 of ROI), ipsilateral” value in assay [8] (ipsilateral to collagenase injection) was “markedly reduced”. In addition, the “neuron damage: immunostaining using antibodies against GFAP, number of immunopositive cells” value in the assay on GFAP was “significantly suppressed”. Moreover, the “inflammation: immunostaining using antibodies against Iba-1, number of immunopositive cells” value with Iba-1 is on record as “significantly suppressed”.

The values above are taken from patent EP4252752A1, “DRUG FOR TREATMENT OR PREVENTION OF CEREBRAL HEMORRHAGE, AND METHOD FOR TREATMENT OR PREVENTION OF CEREBRAL HEMORRHAGE USING SAID DRUG” (Biogen MA Inc., priority 2020, dated 2022).
